In data set [1] the test system is maximal electroshock seizures in mice. The experiment in a line: Anti-electroshock convulsion activity (maximal electroshock seizures, method of Goodman et al.). It counts as in vivo. As to conditions: 2 hours after oral administration, n = 8, 25 mA, 0.25 sec. Here is the method: The effects of the representative compounds of the present invention on maximal electroshock seizures in mice were determined by the method of Goodman et al. [Goodman L. S., Singh Grewal M., Brown W. C. and Swinyard E. A., J. Pharmacol, Exp. Ther., 108, 168-176 (1953)]. At 2 hours after oral administration of test compounds, current (25 mA, 0.25 sec.) was delivered to animals with an electroshock device (made by Unique Medical).

In data set [2] the test system is metrazol-induced convulsive death. The data set can be described thus: Anti-metrazol activity (metrazol-induced convulsive death). It counts as in vivo. As to conditions: oral doses of 20 to 80 mg/kg, male STD-ddY mice. The text has this: (a) Anti-metrazol activity of the compounds of the present invention was examined in male STD-ddY mice.
Data set [3] in a line: Acute toxicity (oral LD50). As to conditions: mouse, in vivo, mice. The text has this:
(c) Acute toxicity of the compounds of the present invention was relatively low.

For data set [4], the system named is mortality induced by potassium cyanide. The experiment in a line: Anti-hypoxic activity (mortality induced by potassium cyanide). In kind it is in vivo. The settings on record: 10 to 20 mg/kg, p.o., male STD-ddY mice.

What is called LD50 is the dose at which mortality reaches 50%.

For `CC1CC[C@H](C(=O)O)[C@H](C(=O)Nc2cc(C(F)(F)F)cc(C(F)(F)F)c2)C1` (relative stereo) [Compound F, cis-2-[(3,5-bistrifluoromethyl-phenyl)-aminocarbonyl]-4(5)-methyl-cyclohexane carboxylic acid], the “Inhibition (%) of tonic extension” value in data set [1] (40 mg/kg p.o.) amounted to 50%; in data set [1] (80 mg/kg p.o.) it was 100%; in data set [1] (320 mg/kg p.o.), 100%.
Consider `O=C1C2CCCCC2C(=O)N1c1cc(C(F)(F)F)cc(C(F)(F)F)c1` (stereo not drawn) [Compound G, N-(3,5-bistrifluoromethylphenyl)-cyclohexane-1,2-dicarboximide], for which the “Inhibition (%) of tonic extension” value is on record as 25% in data set [1] (40 mg/kg p.o.), 100% in data set [1] (80 mg/kg p.o.) and 100% in data set [1] (320 mg/kg p.o.).
Regarding `O=C(O)C1=C(C(=O)Nc2cc(C(F)(F)F)cc(C(F)(F)F)c2)CCCC1` [Compound D, 2-[(3,5-bistrifluoromethyl-phenyl)-aminocarbonyl]-1-cyclohexenecarboxylic acid], the “Inhibition (%) of tonic extension” value in data set [1] (80 mg/kg p.o.) stood at 0%; in data set [1] (320 mg/kg p.o.), 100%.
On the same counts, the results for `O=C1C2CC=CCC2C(=O)N1c1cc(C(F)(F)F)cc(C(F)(F)F)c1` (stereo not drawn) [Compound H, N-(3,5-bistrifluoromethylphenyl)-4-cyclohexene-1,2-dicarboximide] are 50% and 87.5%.
Taken in the same sequence, the figures for `O=C(O)[C@@H]1CCCC[C@H]1C(=O)Nc1cc(C(F)(F)F)cc(C(F)(F)F)c1` (relative stereo) [Compound B, trans-2-[(3,5-bistrifluoromethyl)-phenyl-aminocarbonyl]-cyclohexane carboxylic acid] were 0% and 100%.
Taken in the same sequence, the figures for `O=C(Nc1cc(C(F)(F)F)cc(C(F)(F)F)c1)[C@@H]1[C@@H]2CC[C@@H](C2)[C@@H]1C(=O)O` (relative stereo) [Compound E, cis-endo-3-[(3,5-bistrifluoromethyl-phenyl)-aminocarbonyl]-bicyclo-(2,2,1)-heptane-2-carboxylic acid] were 0% and 100%.
Take `O=C(Nc1cc(C(F)(F)F)cc(C(F)(F)F)c1)[C@H]1CCCC[C@H]1C(=O)O` (relative stereo) [Compound A, cis-2-[(3,5-bistrifluoromethyl)-phenyl-aminocarbonyl]-cyclohexane carboxylic acid]: the “antagonism against metrazol-induced convulsive death” value in data set [2] is given as “dose-dependent antagonism”. In data set [3], the LD50 lay within 1000 to 2000 mg/kg. For the same molecule, the “Inhibition (%) of tonic extension” value in data set [1] (10 mg/kg p.o.) is 25%; in data set [1] (20 mg/kg p.o.), 50%; in data set [1] (40 mg/kg p.o.) it was 100%; in data set [1] (80 mg/kg p.o.), 100%; in data set [1] (320 mg/kg p.o.), 100%. In addition, in data set [4], the “anti-hypoxic activity (antagonism against mortality induced by potassium cyanide)” value is on record as “potent anti-hypoxic activity”.
Consider `O=C(Nc1cc(C(F)(F)F)cc(C(F)(F)F)c1)[C@H]1CC=CC[C@H]1C(=O)O` (relative stereo) [Compound C, cis-6-[(3,5-bistrifluoromethyl-phenyl)-aminocarbonyl]-3-cyclohexene carboxylic acid], for which the “antagonism against metrazol-induced convulsive death” value in data set [2] was “dose-dependent antagonism”. In data set [3], the LD50 lay in the range of 1000 to 2000 mg/kg. For the same molecule, the “Inhibition (%) of tonic extension” value in data set [1] (10 mg/kg p.o.) was 12.5%; in data set [1] (20 mg/kg p.o.) it was 100%; in data set [1] (40 mg/kg p.o.), 100%; in data set [1] (80 mg/kg p.o.) it was 100%; in data set [1] (320 mg/kg p.o.) it was 100%. The “anti-hypoxic activity (antagonism against mortality induced by potassium cyanide)” value in data set [4] is reported as “potent anti-hypoxic activity”.

For the origin of these results see patent publication US4661630A, “Carboxylic acid amides and their derivatives” (Eisai Co., Ltd., priority 1982, dated 1987).
